The text below walks through data of EP3725756A2, “COMPOSITIONS WITH IMPROVED UREASE-INHIBITING EFFECT COMPRISING AMINES, OR COLORANTS, AND AN ADDUCT OF THE THREE COMPOUNDS N-(N-BUTYL) THIOPHOSPHORIC ACID TRIAMIDE (NBPT), UREA, AND FORMALDEHYDE” (BASF SE, priority 2019, dated 2020).

The data set is described as follows: physchem. The format is physicochemical. On the procedure:
"Not dissociable" means that the pKa value (logarithmic measure of the acid dissociation constant) for the reaction alcohol (D) → deprotonated alcohol (D) + H^+ of the hydroxy group in the neutral aqueous phase is more than 9.9, more preferably more than 11, most preferably more than 12, particularly preferably more than 13, for example more than 14 as measured in de-ionized water at 25° C and atmospheric pressure.

The term pKa denotes the negative logarithm of the acid dissociation constant. A higher pKa goes with a weaker acid or stronger base. `CC(O)CO` (stereo not shown) [propane-1,2-diol] displayed a pKa of 14.9.
